This note sets out measurements from patent US7351711B2, “Tricyclic indanyls as integrin inhibitors” (Janssen Pharmaceutical, N.V., priority 2003, dated 2008).

Read-outs that look alike come from different tables or passages of the source. A value given as a limit tells only on which side of the number the result lay.

The target of one experiment is T1, Human αvβ3 (Homo sapiens, UniProt P05106+P06756).
T1 construct: purchased Chemicon International Inc., Temecula, Calif
In words: In vitro solid phase purified αvβ3 binding assay (vitronectin/αvβ3). The note with it: for IC50: read-out: Antagonist IC50 Activity αVβ3. The method, then: In Vitro Solid Phase Purified αvβ3 Binding Assay
(§1) The vitronectin/αvβ3 binding assay methods were derived from Mehta et al. (Biochem J,. 1998, 330, 861). Human αvβ3 (Chemicon International Inc., Temecula, Calif.), at a concentration of 1 μg/ml dissolved in Tris buffer (20 mM Tris, 1 mM CaCl2, 1 mM MgCl2, 10 μM MnCl2, 150 mM NaCl), was immobilized on Immulon 96 well plates (Dynex Technologies, Chantilly, Va.) overnight at 4° C. Plates were washed and treated with blocking buffer (3% BSA in Tris buffer) for 2 h at 37° C. Plates were then rinsed 2 times with assay buffer comprised of Tris buffer. Synthesized compounds were added to wells in duplicate immediately prior to the addition of 2 nM vitronectin (Sigma, St. Louis, Mo.). Following a 3 hour incubation at 37° C., plates were washed 5 times in assay buffer. An anti-human vitronectin IgG rabbit polyclonal antibody (Calbiochem, San Diego, Calif.) was added (1:2000) and plates were incubated for 1 hour at room temperature. VectaStain ABC peroxidase kit reagents (Vector Laboratories, Burlingame, Calif.) employing a biotin labeled anti-rabbit IgG, were utilized for detection of bound antibody. Plates were read at 490 nm on a Molecular Devices (Sunnyvale, Calif.) microplate reader.

A further experiment has as its target T2, human purified αVβ5 (Homo sapiens, UniProt P06756+P18084).
T2 construct: purchased Chemicon International, Inc
In words: In vitro solid phase purified αvβ5 binding assay (vitronectin/αVβ5). The conditions noted are these: inhibition of vitronectin binding to immobilized αVβ5; read-out: Antagonist IC50 Activity αVβ5. On the procedure:
as §1
In Vitro Solid Phase Purified αvβ5 Binding Assay
The vitronectin/αVβ5 binding assay method was performed in the same manner as the vitronectin/αVβ3 binding assay of Example 2, with the difference that 1 μg/mL of human purified αVβ5 (Chemicon International, Inc.) was immobilized onto Immulon 96 well plates (Dynex Technologies) instead of αVβ3. All other aspects of the assay including buffers, reagents and incubation times remain unchanged.

T2 sequence (P06756 31-889 limits assumed): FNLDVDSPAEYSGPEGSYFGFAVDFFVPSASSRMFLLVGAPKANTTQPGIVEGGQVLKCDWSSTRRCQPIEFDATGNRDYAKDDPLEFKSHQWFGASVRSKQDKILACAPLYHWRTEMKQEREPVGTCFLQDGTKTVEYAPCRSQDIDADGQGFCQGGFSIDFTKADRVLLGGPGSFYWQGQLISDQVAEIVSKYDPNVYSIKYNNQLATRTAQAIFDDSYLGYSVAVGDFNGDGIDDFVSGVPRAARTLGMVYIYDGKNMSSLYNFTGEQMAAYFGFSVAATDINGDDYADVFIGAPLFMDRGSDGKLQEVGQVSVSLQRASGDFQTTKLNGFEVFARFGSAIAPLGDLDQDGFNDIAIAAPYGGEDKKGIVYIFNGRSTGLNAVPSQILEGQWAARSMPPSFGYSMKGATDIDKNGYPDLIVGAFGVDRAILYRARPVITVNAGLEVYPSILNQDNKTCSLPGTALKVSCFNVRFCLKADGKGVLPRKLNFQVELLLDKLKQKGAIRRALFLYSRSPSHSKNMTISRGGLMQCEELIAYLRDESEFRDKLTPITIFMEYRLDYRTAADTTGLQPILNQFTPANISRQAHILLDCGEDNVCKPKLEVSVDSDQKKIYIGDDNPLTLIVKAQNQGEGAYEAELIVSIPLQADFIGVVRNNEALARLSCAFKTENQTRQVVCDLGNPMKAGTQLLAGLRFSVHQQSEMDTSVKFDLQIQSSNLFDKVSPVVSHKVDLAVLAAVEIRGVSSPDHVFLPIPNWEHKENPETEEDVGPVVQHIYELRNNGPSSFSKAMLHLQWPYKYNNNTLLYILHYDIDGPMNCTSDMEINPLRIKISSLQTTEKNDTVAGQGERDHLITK
T2 sequence (P06756 891-1048 partner limits assumed): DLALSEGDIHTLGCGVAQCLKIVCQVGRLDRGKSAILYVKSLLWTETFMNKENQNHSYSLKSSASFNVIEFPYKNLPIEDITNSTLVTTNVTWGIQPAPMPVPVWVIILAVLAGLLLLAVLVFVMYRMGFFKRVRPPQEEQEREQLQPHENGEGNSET
T2 sequence (P18084 24-799): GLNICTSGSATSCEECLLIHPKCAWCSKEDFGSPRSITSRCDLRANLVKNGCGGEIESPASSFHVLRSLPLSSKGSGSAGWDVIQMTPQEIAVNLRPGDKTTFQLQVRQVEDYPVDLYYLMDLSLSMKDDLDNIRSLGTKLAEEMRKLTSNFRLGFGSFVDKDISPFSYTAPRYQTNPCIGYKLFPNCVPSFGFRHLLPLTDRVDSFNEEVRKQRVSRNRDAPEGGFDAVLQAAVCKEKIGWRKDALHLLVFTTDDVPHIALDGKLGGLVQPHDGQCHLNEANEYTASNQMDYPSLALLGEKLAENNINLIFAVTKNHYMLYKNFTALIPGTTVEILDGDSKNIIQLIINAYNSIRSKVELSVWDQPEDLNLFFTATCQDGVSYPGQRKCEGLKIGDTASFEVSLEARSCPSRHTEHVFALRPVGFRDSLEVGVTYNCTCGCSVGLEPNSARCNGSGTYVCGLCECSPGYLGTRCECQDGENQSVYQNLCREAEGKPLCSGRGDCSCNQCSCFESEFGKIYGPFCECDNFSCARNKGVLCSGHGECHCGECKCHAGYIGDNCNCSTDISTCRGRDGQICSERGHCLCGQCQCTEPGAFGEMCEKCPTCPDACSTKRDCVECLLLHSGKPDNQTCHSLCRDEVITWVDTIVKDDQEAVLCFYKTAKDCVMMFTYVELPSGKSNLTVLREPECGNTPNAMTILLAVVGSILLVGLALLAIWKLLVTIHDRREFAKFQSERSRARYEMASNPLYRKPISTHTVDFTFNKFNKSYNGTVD
T1 sequence (P06756 31-889 limits assumed): as the sequence (P06756 31-889 limits assumed) above
T1 sequence (P06756 891-1048 partner limits assumed): as the sequence (P06756 891-1048 partner limits assumed) above
T1 sequence (P05106 27-788): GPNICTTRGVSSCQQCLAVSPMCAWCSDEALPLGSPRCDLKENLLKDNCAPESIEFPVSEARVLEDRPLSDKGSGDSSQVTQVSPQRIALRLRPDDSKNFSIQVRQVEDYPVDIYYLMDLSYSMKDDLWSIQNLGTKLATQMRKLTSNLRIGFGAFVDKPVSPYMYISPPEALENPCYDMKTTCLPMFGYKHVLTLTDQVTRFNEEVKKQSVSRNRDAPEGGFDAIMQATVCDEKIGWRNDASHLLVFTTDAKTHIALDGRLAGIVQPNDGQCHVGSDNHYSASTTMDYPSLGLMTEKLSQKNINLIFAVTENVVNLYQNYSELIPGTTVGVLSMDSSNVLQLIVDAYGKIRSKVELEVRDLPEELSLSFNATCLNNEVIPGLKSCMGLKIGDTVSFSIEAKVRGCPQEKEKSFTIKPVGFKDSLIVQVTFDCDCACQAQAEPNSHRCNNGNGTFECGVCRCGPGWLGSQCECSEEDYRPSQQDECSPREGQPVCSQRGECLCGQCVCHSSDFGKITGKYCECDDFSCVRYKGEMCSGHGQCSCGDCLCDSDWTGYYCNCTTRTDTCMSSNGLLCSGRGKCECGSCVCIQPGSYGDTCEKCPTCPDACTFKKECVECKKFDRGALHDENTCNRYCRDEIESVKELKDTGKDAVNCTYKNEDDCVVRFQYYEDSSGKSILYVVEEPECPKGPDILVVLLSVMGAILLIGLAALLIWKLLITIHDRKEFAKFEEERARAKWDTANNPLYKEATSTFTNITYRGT

On to `O=C(O)CC1c2ccccc2C2CN(C(=O)CCc3ccc4c(n3)NCCC4)CC12` (single isomer, unassigned) [Cpd 13, [2-(3-5,6,7,8-Tetrahydro-[1,8]naphthyrin-2-yl-propionyl)-1,2,3,3a,8,8a-hexahydro-2-aza-cyclopenta[a]inden-8-yl]-acetic acid], for which the IC50 on Human αvβ3 came out at 0.29 ± 0.09 µM; on human purified αVβ5 it was 0.26 ± 0.06 µM. The matching figures for `O=C(O)C[C@H]1c2ccccc2[C@@H]2CN(C(=O)CCc3ccc4c(n3)NCCC4)C[C@H]12` [Cpd 14, [2-(3-5,6,7,8-Tetrahydro-[1,8]naphthyrin-2-yl-propionyl)-1,2,3,3a,8,8a-hexahydro-2-aza-cyclopenta[a]inden-8-yl]-acetic acid]: 0.017 ± 0.003 µM and 0.0058 ± 0.0012 µM. The matching figures for `O=C(O)C[C@@H]1c2ccccc2[C@@H]2CN(C(=O)Cc3cccc(NC4=NCCCN4)c3)CC[C@H]12` (single isomer, unassigned) [Cpd 1, (3-{2-[3-(1,4,5,6,-Tetrahydro-pyrimidin-2-ylamino)-phenyl]-acetyl}-2,3,4,4a,9,9a-hexahydro-1H-3-aza-fluoren-9-yl)-acetic acid]: 0.066 ± 0.006 µM and 1.02 ± 0.18 µM. Turning to `O=C(O)CC1c2ccccc2C2CN(C(=O)CCCNc3ccccn3)CCC12` (stereo not drawn) [Cpd 7, {3-[4-(Pyridin-2-ylamino)-butyryl]-2,3,4,4a,9,9a-hexahydro-1H-3-aza-fluoren-9-yl}-acetic acid], at Human αvβ3 (inhibition of 2 nM vitronectin binding to immobilized αvβ3), the IC50 was above 0.001 µM. Turning to `O=C(O)CC1c2ccccc2C2CN(C(=O)CCCc3ccc4c(n3)NCCC4)CC12` (racemic) [Cpd 15], the 50% inhibitory concentration (IC50) at Human αvβ3 was 0.411 µM; on human purified αVβ5 it was 0.538 µM. For `O=C(O)CC1c2ccccc2C2CN(C(=O)CCCNc3ccccn3)CCC12` (stereo not drawn) [Cpd 6, {3-[4-(Pyridin-2-ylamino)-butyryl]-2,3,4,4a,9,9a-hexahydro-1H-3-aza-fluoren-9-yl}-acetic acid], the IC50 at Human αvβ3 was above 0.001 µM. Take `O=C(O)CC1c2ccccc2C2CCN(C(=O)CCCc3ccc4c(n3)NCCC4)CC21` (stereo not drawn) [Cpd 9, [2-(4-5,6,7,8-Tetrahydro-[1,8]naphthyridine-2-yl-butyryl)-2,3,4,4a,9,9a-hexahydro-1H-indeno[2,1-c]pyridin-9-yl]-acetic acid]: the “Antagonist activity αVβ3, % @ 50 μM” value on Human αvβ3 turned out to be 41% @. In the case of `O=C(O)C[C@H]1c2ccccc2[C@@H]2CN(C(=O)Cc3cccc(NC4=NCCCN4)c3)CC[C@H]12` (single isomer, unassigned) [Cpd 2, (3-{2-[3-(1,4,5,6,-Tetrahydro-pyrimidin-2-ylamino)-phenyl]-acetyl}-2,3,4,4a,9,9a-hexahydro-1H-3-aza-fluoren-9-yl)-acetic acid], the concentration for half-maximal inhibition (IC50) at Human αvβ3 was found to be 0.126 ± 0.04 µM; at human purified αVβ5, 0.217 ± 0.005 µM.

On to `O=C(O)CC1c2ccccc2C2CCN(C(=O)CCCc3ccc4c(n3)NCCC4)CC21` (stereo not drawn) [Cpd 10, [2-(4-5,6,7,8-Tetrahydro-[1,8]naphthyridine-2-yl-butyryl)-2,3,4,4a,9,9a-hexahydro-1H-indeno[2,1-c]pyridin-9-yl]-acetic acid], for which, on Human αvβ3, the “Antagonist activity αVβ3, % @ 50 μM” value amounted to 51% @ 50 μM. On to `O=C(O)CC1c2ccccc2C2CN(C(=O)CCCc3ccc4c(n3)NCCC4)CCC12` (racemic) [Cpd 3], for which the IC50 on Human αvβ3 was 0.085 ± 0.008 µM; at human purified αVβ5, 0.23 ± 0.04 µM. Consider `O=C(O)CC1c2ccccc2C2CCN(C(=O)CCc3ccc4c(n3)NCCC4)CC21` (racemic) [Cpd 11], for which the IC50 at Human αvβ3 is above 0.001 µM. As to `O=C(O)CC1c2ccccc2C2CN(C(=O)CCc3ccc4c(n3)NCCC4)CC12` (racemic) [Cpd 12], the IC50 at Human αvβ3 stood at 0.026 ± 0.008 µM; on human purified αVβ5, 0.015 ± 0.002 µM.

As for `O=C(O)CC1c2ccccc2C2CN(C(=O)CCc3ccc4c(n3)NCCC4)CCC12` (racemic) [Cpd 4], the figures for the IC50 on Human αvβ3 and on human purified αVβ5 were 0.087 µM and 0.189 µM, respectively.

Usually IC50 stands for the concentration needed to halve the response being measured.
